From patent US20140357512A1, “HISTONE DEACETYLASE (HDAC) BIOMARKERS IN MULTIPLE MYELOMA” (priority 2013, published 2014)

System: human myeloma cell line MM.1S
Assay: SILAC acetylated-lysine peptide profiling, HDAC inhibitor vs DMSO (light/heavy ratio)
Format: cell-based
Source text: An embodiment of the invention comprises utilizing the SILAC method in order to quantitate changes in protein expression between two or more populations of cells. The SILAC method is a technique based on mass spectrometry that detects differences in protein abundance among samples using non-radioactive isotopic labeling. The SILAC method is known in the art, and described in detail in Ong et al., “Stable Isotope Labeling by Amino Acids in Cell Culture, SILAC, as a Simple and Accurate Approach to Expression Proteomics”, Molecular & Cellular Proteomics, vol. 1, pp. 376-386 (2002), which is incorporated herein by reference in its entirety.
Briefly, the SILAC method involves growing two populations of cells in cell culture. The first population of cells is grown in growth media containing normal amino acids (“normal media”). The second population of cells is grown in media lacking a standard essential amino acid (such as lysine), but is then supplemented with a non-radioactive, isotopically labeled form of that essential amino acid (such as lysine labeled with ^13C atoms, rather than normal ^12C atoms), which is called “heavy media”. When the two populations of cells are each growing in the medium, they incorporate the amino acids into all of their proteins. The growth of cells maintained in the heavy media is no different from that in normal media. All peptides containing the heavy amino acids are heavier than their normal counterparts. The cells from each of the two populations of cells are lysed. The lysates from each of the two cell populations are then combined. The combined cell lysates are then analyzed by mass spectrometry. Pairs of chemically identical peptides of different stable isotope composition can be differentiated in a mass spectrometer due to their difference in mass. The ratio of peak intensities in the mass spectrum for such peptide pairs reflects the abundance ratio for the two proteins.
This example describes SILAC studies that were performed to compare the effects of three different HDAC inhibitors (Compound A, Compound B, and tubastatin A) to a control on a human multiple myeloma cell line. The HDAC inhibitors were also compared amongst themselves to determine differences in their effects.
A human myeloma cell line MM.1S was grown using either ^12C (light) or ^13C (heavy) lysine containing culture medium. The “heavy” cells were treated with DMSO as the control, and the “light” cells were treated with a single HDAC inhibitor at 37° C. for 6 hours. The heavy and light cells were lysed, and the lysates were mixed in 1:1 ratio and digested with the protease trypsin. The acetylated lysine containing peptides (due to the action of the HDAC inhibitor) in the digested peptide pool were captured by a non-specific anti-acetylated lysine antibody cocktail (the antibodies identify both light and heavy acetylated peptides), and subjected to mass spectrometry analysis in order to identify thousands of individual peptides.
Thousands of peptides were identified in pairs (^12C and ^13C) due to their known mass differences. The amino acid sequence and quantitative ratio (Light/Heavy) of a given peptide in two differentially treated cell lysates were then determined and annotated with their possible protein (gene) sources.
As stated above, three HDAC inhibitors (Compound A, Compound B, and Tubastatin A) were used. Thus, the SILAC method was performed three times, with a different HDAC inhibitor compared to a control each time. Accordingly, there are three pairs of quantitative data in the table below, i.e., Compound A:DMSO, Compound B:DMSO, and Tubastatin A:DMSO. A cut-off of 1.30 fold of change (increase or decrease) was then used to determine “changed” or “+” in the table, and any peptides with a fold of change less than 1.3 fold were determined to be “unchanged” or “0” in the table. Those peptides that were not identified were marked as “NA” in the table. […]

O=C(CCCCCCNC(=O)c1cnc(N(c2ccccc2)c2ccccc2)nc1)NO [Compound A, 2-(diphenylamino)-N-(7-(hydroxyamino)-7-oxoheptyl)pyrimidine-5-carboxamide]
L/H ratio of acetylated peptide […](ac)K (SEQ ID NO: 105) (SNORD21, RPL5 [220], log 2 scale, drug vs DMSO): 0.00
L/H ratio of acetylated peptide […](ac)R (SEQ ID NO: 106) (SNORD43, RPL3 [115], log 2 scale, drug vs DMSO): 0.00
L/H ratio of acetylated peptide […](ac)YGAIR (SEQ ID NO: 107) (SRSF1 [38], log 2 scale, drug vs DMSO): 0.00
L/H ratio of acetylated peptide (ac)AEPSAPESK(ac)HK (SEQ ID NO: 108) (STT3B [10], log 2 scale, drug vs DMSO): 0.00
L/H ratio of acetylated peptide (SYAEELAK(ac)HGMK (SEQ ID NO: 481), Estradiol 17-beta-dehydrogenase 12 [72], HSD17B12): 0.39 log 2
light to heavy ratio (L/H ratio), log 2 scale, acetylated peptide […](ac)R (SEQ ID NO: 781) (Selenoprotein H [20], gene C11orf31, drug:DMSO): 1.00
light to heavy ratio (L/H ratio) of acetylated peptide LQDFK(ac)SFLLK (SEQ ID NO: 582) (Serine hydroxymethyltransferase mitochondrial [469], gene SHMT2, inhibitor:DMSO): 0.43 log 2
light to heavy ratio (L/H ratio) of acetylated peptide SFLLK(ac)DSETSQR (SEQ ID NO: 567) (Serine hydroxymethyltransferase mitochondrial [474], gene SHMT2, inhibitor:DMSO): 0.41 log 2
light to heavy ratio (L/H ratio) of acetylated peptide VFEK(ac)YGR (SEQ ID NO: 568) (Serine/arginine-rich splicing factor 2 [36], gene SRSF2, inhibitor:DMSO): 0.41 log 2
light to heavy ratio (L/H ratio) of acetylated peptide SGLLDK(ac)WK (SEQ ID NO: 602) (Signal peptidase complex subunit 2 [38], gene LOC653566, SPCS2, inhibitor:DMSO): 0.46 log 2
light to heavy ratio (L/H ratio) of acetylated peptide (ac)[…](ac)DK (SEQ ID NO: 283) (Splicing factor U2AF 35 kDa subunit [13], U2AF1, drug:DMSO): 0.60 log 2
light to heavy ratio (L/H ratio) of acetylated peptide YDDPEVQK(ac)DIK (SEQ ID NO: 578) (Stress-70 protein mitochondrial [135], gene HSPA9, inhibitor:DMSO): 0.43 log 2
light to heavy ratio (L/H ratio) of acetylated peptide […](ac)SLAEHR (SEQ ID NO: 534) (Stress-induced-phosphoprotein 1 [325], gene STIP1, inhibitor:DMSO): −0.40 log 2
light to heavy ratio (L/H ratio) of acetylated peptide, log 2 scale (TLQYK(ac)[…] (SEQ ID NO: 252), 40S ribosomal protein S16 [50], RPS16): −0.39
L/H ratio of acetylated peptide […](ac)YVPR (SEQ ID NO: 109) (TUBB2C [58], log 2 scale, drug vs DMSO): 0.00
L/H ratio of acetylated peptide ILAEGGGAK(ac)FK (SEQ ID NO: 110) (TUFM [91], log 2 scale, drug vs DMSO): 0.00
L/H ratio of acetylated peptide QIESK(ac)[…] (SEQ ID NO: 111) (TXN [8], log 2 scale, drug vs DMSO): 0.00
L/H ratio of acetylated peptide VYVAK(ac)[…] (SEQ ID NO: 113) (TXNDC5, MUTED, MUTED-TXNDC5 [118], log 2 scale, drug vs DMSO): 0.00
L/H ratio of acetylated peptide […](ac)YQGPR (SEQ ID NO: 112) (TXNDC5, MUTED, MUTED-TXNDC5 [150], log 2 scale, drug vs DMSO): 0.00
light to heavy ratio (L/H ratio), log 2 scale, acetylated peptide LLGITK(ac)ECVMR (SEQ ID NO: 815) (Talin-1 [334], gene TLN1, drug:DMSO): 1.00
light to heavy ratio (L/H ratio) of acetylated peptide NICSK(ac)YSVR (SEQ ID NO: 256) (Thioredoxin domain-containing protein 5 [390], TXNDC5, MUTED, MUTED-TXNDC5, drug:DMSO): 0.39 log 2
light to heavy ratio (L/H ratio), log 2 scale, acetylated peptide […](ac)YGK (SEQ ID NO: 817) (Transitional endoplasmic reticulum ATPase [109], gene VCP, drug:DMSO): 1.00
light to heavy ratio (L/H ratio) of acetylated peptide AVDCLLDSK(ac)WAK (SEQ ID NO: 518) (Translocation protein SEC62 [60], gene SEC62, inhibitor:DMSO): −0.51 log 2
light to heavy ratio (L/H ratio) of acetylated peptide NVK(ac)FVLK (SEQ ID NO: 609) (Translocon-associated protein subunit gamma [81], gene SSR3, inhibitor:DMSO): 0.47 log 2
light to heavy ratio (L/H ratio) of acetylated peptide SEIINSK(ac)NFDR (SEQ ID NO: 525) (Transmembrane protein 43 [159], gene TMEM43, inhibitor:DMSO): −0.45 log 2
light to heavy ratio (L/H ratio) of acetylated peptide VK(ac)[…] (SEQ ID NO: 562) (Tricarboxylate transport protein mitochondrial [149], gene SLC25A1, inhibitor:DMSO): 0.40 log 2
light to heavy ratio (L/H ratio), log 2 scale, acetylated peptide ESK(ac)[…] (SEQ ID NO: 787) (Trifunctional enzyme subunit alpha mitochondrial [337], gene HADHA, drug:DMSO): 1.00
light to heavy ratio (L/H ratio), log 2 scale, acetylated peptide FGAPQK(ac)DVK (SEQ ID NO: 788) (Trifunctional enzyme subunit alpha mitochondrial [359], gene HADHA, drug:DMSO): 1.00
light to heavy ratio (L/H ratio), log 2 scale, acetylated peptide ILQEGVDPK(ac)K (SEQ ID NO: 789) (Trifunctional enzyme subunit alpha mitochondrial [569], gene HADHA, drug:DMSO): 1.00
light to heavy ratio (L/H ratio) of acetylated peptide VPGK(ac)DTVTK (SEQ ID NO: 308) (Trifunctional enzyme subunit beta mitochondrial [272], HADHB, drug:DMSO): 1.00 log 2
light to heavy ratio (L/H ratio), log 2 scale, acetylated peptide GK(ac)GK(ac)AGR (SEQ ID NO: 816) (Tubulin polymerization-promoting protein [187:189], gene TPPP, drug:DMSO): 1.00
L/H ratio of acetylated peptide VVVTK(ac)YCDPDSYHR (SEQ ID NO: 114) (U2AF2 [462], log 2 scale, drug vs DMSO): 0.00
light to heavy ratio (L/H ratio), log 2 scale, acetylated peptide QNIILK(ac)NDK (SEQ ID NO: 784) (Uncharacterized protein CXorf59 [13], gene CXorf59, drug:DMSO): 1.00
L/H ratio of acetylated peptide (VAILK(ac)ANLR (SEQ ID NO: 488), Transitional endoplasmic reticulum ATPase [658], VCP): 0.80 log 2
L/H ratio of acetylated peptide FGIAAK(ac)[…] (SEQ ID NO: 115) (VDAC1 [224], log 2 scale, drug vs DMSO): 0.00
L/H ratio of acetylated peptide YK(ac)[…] (SEQ ID NO: 116) (VDAC2 [63], log 2 scale, drug vs DMSO): 0.00
